Tests used:
[1] = Half life of ECA-ATL in serum; type: ADME, cell-free; conditions: human
[2] = Half life of ECA-ATL in buffer at pH 7.4; type: ADME

Row | half-life [1] [h] | half-life [2] [h] | Structure (SMILES)
1 | < 0.0333 | 130 | C=C(CC)C(=O)c1ccc(OCC(=O)OCCOCCOCCOCCO)c(Cl)c1Cl
2 | 0.5 | 14 | C=C(CC)C(=O)c1ccc(OCC(=O)OC(CNC(C)C)COc2ccc(CC(N)=O)cc2)c(Cl)c1Cl (stereo not drawn)
3 | < 0.0333 | 120 | C=C(CC)C(=O)c1ccc(OCC(=O)OCCOCCOCCOCCOCCOCCO)c(Cl)c1Cl
4 | < 0.0333 | 110 | C=C(CC)C(=O)c1ccc(OCC(=O)OCCOCCO)c(Cl)c1Cl
